Assay results: US20210330603A1 (priority 2020, published 2021)

Columns and labels:
EHEC [1] = test: Western blots of secreted translocon components EspA and EspB, EHEC (LEE-encoded T3SS activity); type: cell-based, Escherichia coli O157:H7
EHEC [2] = test: Growth curves of EHEC in the presence of AA and AG (FIG. 22); type: cell-based, Escherichia coli; details: concentrations of 80 and 160 μM
Excerpt: (§1) FIG. 22. Growth curves for Staphylococcus aureus (left side graphs) and EHEC (right side graphs) in the presence of AA (top graphs) and AG (bottom graphs).
(§2) Some lipids are antimicrobial with respect to certain bacteria.

EHEC [3] = type: cell-based, Escherichia coli O157:H7
EHEC [4] = type: cell-based, Escherichia coli O157:H7; remark: listed apart in the source
C. rodentium [5] = type: cell-based, Citrobacter rodentium
C. rodentium [6] = test: Western blots of secreted translocon components EspA and EspB, C. rodentium; type: cell-based, Citrobacter rodentium; details: physiological concentrations of 2-AG, late-log phase
EHEC [7] = test: Western blots of lysate-associated EspA, EspB and Tir in EHEC; type: cell-based, Escherichia coli O157:H7; details: late-log phase
EHEC [8] = test: Growth kinetics of EHEC under LEE-inducing conditions (FIG. 11); type: cell-based, Escherichia coli O157:H7; details: 10 μM 2-AG, microaerobic, DMEM-low glucose
C. rodentium [9] = test: Growth kinetics of C. rodentium under LEE-inducing conditions (FIG. 11); type: cell-based, Citrobacter rodentium; details: 10 μM 2-AG, microaerobic, DMEM-low glucose
EHEC [10] = test: Fluorescent actin staining (FAS) assay, EHEC pedestal formation on HeLa cells; type: cell-based, Escherichia coli O157:H7; details: EHEC treated with 10 μM 2-AG prior to infection of HeLa cells
S. Typhimurium [11] = test: Targeted qPCR of SPI-1 genes in S. Typhimurium; type: cell-based, Salmonella enterica serovar Typhimurium; details: 10 μM 2-AG, SPI-1-inducing conditions, late-log phase
S. Typhimurium [12] = test: SipA secretion by S. Typhimurium under SPI-1-inducing conditions; type: cell-based, Salmonella enterica serovar Typhimurium; details: 10 μM 2-AG
S. Typhimurium [13] = test: Epithelial invasion assay, S. Typhimurium on HeLa cells; type: cell-based, Salmonella enterica serovar Typhimurium; details: ST treated with 10 μM 2-AG prior to infection of HeLa cells
S. Typhimurium [14] = test: Growth curves of S. Typhimurium under SPI-1-inducing conditions; type: cell-based, Salmonella enterica serovar Typhimurium; details: 10 μM 2-AG
S. Typhimurium [15] = test: Transcript levels of SPI-2 genes in S. Typhimurium; type: cell-based, Salmonella enterica serovar Typhimurium; details: 10 μM 2-AG, SPI-2-inducing conditions, 3 hours
S. Typhimurium [16] = test: Macrophage infection, intramacrophagic survival of S. Typhimurium in J774.1 murine macrophages; type: cell-based, Salmonella enterica serovar Typhimurium
QseC = target: T1, QseC (Escherichia coli O157:H7, UniProt Q8X524); test: Autophosphorylation of QseC in liposomes; type: biochemical
T1 construct: Myc (C); His (C); made in house; host or cells: E. coli BL21(DE3) (printed 'B121 DE3'), arabinose induction, Ni-NTA purification
T1 sequence (Q8X524 whole entry): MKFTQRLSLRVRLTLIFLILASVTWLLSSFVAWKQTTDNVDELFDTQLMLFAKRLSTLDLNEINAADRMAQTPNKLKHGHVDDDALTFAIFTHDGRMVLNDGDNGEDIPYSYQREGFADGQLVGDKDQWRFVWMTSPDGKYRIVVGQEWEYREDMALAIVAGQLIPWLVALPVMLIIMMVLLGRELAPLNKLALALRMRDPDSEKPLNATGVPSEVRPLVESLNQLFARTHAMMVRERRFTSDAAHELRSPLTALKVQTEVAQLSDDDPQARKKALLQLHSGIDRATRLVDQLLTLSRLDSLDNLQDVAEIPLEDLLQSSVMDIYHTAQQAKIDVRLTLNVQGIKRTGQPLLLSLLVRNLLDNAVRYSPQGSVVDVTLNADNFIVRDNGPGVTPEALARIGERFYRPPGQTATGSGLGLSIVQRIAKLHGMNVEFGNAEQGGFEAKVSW

CpxA = target: T2, CpxA (Escherichia coli O157:H7, UniProt P0AE84); test: Autophosphorylation of CpxA in liposomes; type: biochemical; details: 10 μM 2-AG, 120 seconds or 10 minutes
T2 construct: made in house; host or cells: E. coli BL21(DE3) (printed 'B121 DE3'), IPTG induction, Ni-NTA purification
T2 sequence (P0AE84 1-457): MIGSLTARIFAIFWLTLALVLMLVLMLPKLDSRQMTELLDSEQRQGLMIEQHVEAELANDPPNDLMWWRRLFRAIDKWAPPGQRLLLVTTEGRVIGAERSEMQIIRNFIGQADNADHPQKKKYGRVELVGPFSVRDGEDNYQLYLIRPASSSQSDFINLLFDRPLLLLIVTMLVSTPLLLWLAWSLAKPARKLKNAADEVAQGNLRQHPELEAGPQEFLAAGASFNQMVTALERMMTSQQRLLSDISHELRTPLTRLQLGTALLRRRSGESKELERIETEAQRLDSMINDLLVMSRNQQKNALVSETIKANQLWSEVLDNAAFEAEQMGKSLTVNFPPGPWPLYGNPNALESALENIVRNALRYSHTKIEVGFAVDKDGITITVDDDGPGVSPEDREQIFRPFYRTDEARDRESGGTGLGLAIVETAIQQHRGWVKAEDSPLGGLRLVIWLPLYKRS

FusK = test: qRT-PCR of LEE-encoded tir in EHEC ΔfusK; type: cell-based, Escherichia coli O157:H7; details: 20 μM 2-AG, aerobic
Staphylococcus aureus = test: Growth curves of Staphylococcus aureus in the presence of AA and AG (FIG. 22); type: cell-based
Excerpt: as §1, §2

EHEC strain 86-24 = test: qPCR of espA in EHEC grown in LG-DMEM with CBD; type: cell-based, Escherichia coli O157:H7
EHEC 86-24 [17] = test: EspA immunoblot of EHEC grown with CBD; type: cell-based, Escherichia coli O157:H7; details: 50 μM CBD
EHEC 86-24 [18] = test: Growth rate and growth yield of EHEC with CBD; type: cell-based, Escherichia coli O157:H7
Citrobacter rodentium = test: Cannabidiol treatment of C. rodentium infected mice (fecal colony counts); type: in vivo, mouse; details: single dose one-day post-infection
C. rodentium [19] = test: Pharmacological inhibition of MgI in C. rodentium infected mice (FIG. 23); type: in vivo, mouse
[20] = physiological concentrations of 2-AG, late-log phase

## CCCCC/C=C\C/C=C\C/C=C\C/C=C\CCCC(=O)OC[C@@H](O)CO [1-AG, reference compound]
EHEC [1]; 1-AG in contrast to 2-AG, late-log phase
  LEE-encoded T3SS activity (EspA and EspB secretion): does not attenuate LEE-encoded T3SS activity

## CCCCC/C=C\C/C=C\C/C=C\C/C=C\CCCC(=O)OC(CO)CO [2-AG, 2-arachidonoyl-glycerol]
EHEC [2]
  growth of EHEC: does not inhibit growth
EHEC [3]
  differentially expressed KEGG pathways (RNAseq): significantly altered the expression four KEGG pathways
  expression of LEE-encoded genes (RNAseq): significant downregulation of numerous LEE-encoded genes
  non-LEE encoded genes differentially expressed (RNAseq): few non-LEE encoded genes were differentially expressed
EHEC [4]
  LEE transcription, targeted qPCR of LEE-encoded genes spanning its five operons: inhibitory effects of 2-AG on LEE transcription were confirmed
  transcription of Shiga toxin (stx2a): no transcriptional effect
C. rodentium [5]
  expression of LEE-encoded genes in C. rodentium: decreased expression of LEE-encoded genes
EHEC [1]; EHEC ΔfadL, 10 μM 2-AG
  LEE activity in isogenic fadL mutant: no longer inhibited
EHEC [1]; [20]
  EspA secretion, EHEC: significantly reduced
  EspB secretion, EHEC: significantly reduced
EHEC [1]; qseC isogenic mutant, 10 μM 2-AG
  LEE functional activity in the qseC mutant in EHEC: not affected
C. rodentium [6]
  EspA secretion, C. rodentium: significantly reduced
  EspB secretion, C. rodentium: significantly reduced
EHEC [7]
  protein expression of EspA in EHEC lysates: significantly decreased
  protein expression of EspB in EHEC lysates: significantly decreased
  protein expression of Tir in EHEC lysates: significantly decreased
EHEC [8]
  growth of EHEC: did not correspond with altered growth
C. rodentium [9]
  growth of C. rodentium: did not correspond with altered growth
EHEC [10]
  pedestal formation on epithelial cells (A/E lesion formation): decreased pedestal formation
S. Typhimurium [11]
  expression of hilD: inhibits expression
  expression of sipA: inhibits expression
  expression of sopB: inhibits expression
S. Typhimurium [12]
  secretion of SipA: decreased secretion of SipA
S. Typhimurium [13]
  epithelial invasiveness: attenuated epithelial invasiveness
S. Typhimurium [14]
  S. Typhimurium growth kinetics: did not alter
S. Typhimurium [15]
  expression of ssaV: decreased expression
  expression of sseF: decreased expression
S. Typhimurium [16]
  survival within macrophages: decreased survival within macrophages
QseC; 6 μM 2-AG, 50 μM epinephrine, 30 minutes
  Epi-mediated activation of QseC: inhibited Epi-mediated activation of QseC
QseC; QseC reconstituted into liposomes
  QseC activation (autophosphorylation): significantly diminished
CpxA
  activity of CpxA (autophosphorylation): did not inhibit
FusK
  activity of FusK: did not inhibit

## Cc1c(C(=O)NN2CCCCC2)nn(-c2ccc(Cl)cc2Cl)c1-c1ccc(I)cc1 [AM251, reference compound]
QseC; 6 μM 2-AG and AM251, 30 minutes, liposome system
  effect on 2-AG-mediated inhibition of QseC activity: prevented 2-AG-mediated inhibition of QseC activity

## CCCCC/C=C\C/C=C\C/C=C\C/C=C\CCCC(=O)O [Arachidonic acid]
Staphylococcus aureus
  growth of S. aureus: inhibits the growth

## C=C(C)[C@@H]1CCC(C)=C[C@H]1c1c(O)cc(CCCCC)cc1O [CBD, cannabidiol]
EHEC strain 86-24; wt EHEC 86-24, 50 μM CBD
  decrease in expression of espA compared to the vehicle: 20.6 fold
EHEC strain 86-24; ΔqseC deletion strain, 50 μM CBD
  reduction in expression of espA between the control and CBD: 17.5 fold
EHEC 86-24 [17]
  expression of EspA protein (immunoblot): reduced expression of EspA
EHEC 86-24 [18]
  growth rate and growth yield: neither the growth rate nor the growth yield for the wt and ΔqseC deletion strains were significantly altered
Citrobacter rodentium
  ability of Citrobacter rodentium to colonize the intestines of mice: inhibited the ability

## O=C(Oc1ccc([N+](=O)[O-])cc1)N1CCC(C(O)(c2ccc3c(c2)OCO3)c2ccc3c(c2)OCO3)CC1 [JZL184]
C. rodentium [19]
  colonization of cecum tissues by C. rodentium: decreases colonization of cecum tissues

## CCCCC/C=C\C/C=C\C/C=C\C/C=C\CCCC(=O)NCCO [anandamide, reference compound]
EHEC [1]; anandamide 100 or 200 nM, late-log phase
  LEE activity (EspA and EspB secretion): does not alter LEE activity
